Test results taken from paper PMC3865070 (Neuropharmacology, 2013).
Where two headings read alike, the source gives them in different places.

What was measured:
Format in all cases: cell-based
GluN1(F484A/T518L)/N3A = GluN1(F484A/T518L)/N3A (Rattus norvegicus, UniProt Q9R1M7); assay: Two-electrode voltage-clamp recordings, Xenopus oocytes expressing GluN1; conditions: for voltage dependence of inhibition: current-voltage relationship, inhibition at −60 mV and +30 mV; for Hill coefficient (nH): inhibition
GluN1(F484A/T518L)/N3A, sequence (Q9R1M7 24-1115 isoform Q9R1M7-2, other chains not shown): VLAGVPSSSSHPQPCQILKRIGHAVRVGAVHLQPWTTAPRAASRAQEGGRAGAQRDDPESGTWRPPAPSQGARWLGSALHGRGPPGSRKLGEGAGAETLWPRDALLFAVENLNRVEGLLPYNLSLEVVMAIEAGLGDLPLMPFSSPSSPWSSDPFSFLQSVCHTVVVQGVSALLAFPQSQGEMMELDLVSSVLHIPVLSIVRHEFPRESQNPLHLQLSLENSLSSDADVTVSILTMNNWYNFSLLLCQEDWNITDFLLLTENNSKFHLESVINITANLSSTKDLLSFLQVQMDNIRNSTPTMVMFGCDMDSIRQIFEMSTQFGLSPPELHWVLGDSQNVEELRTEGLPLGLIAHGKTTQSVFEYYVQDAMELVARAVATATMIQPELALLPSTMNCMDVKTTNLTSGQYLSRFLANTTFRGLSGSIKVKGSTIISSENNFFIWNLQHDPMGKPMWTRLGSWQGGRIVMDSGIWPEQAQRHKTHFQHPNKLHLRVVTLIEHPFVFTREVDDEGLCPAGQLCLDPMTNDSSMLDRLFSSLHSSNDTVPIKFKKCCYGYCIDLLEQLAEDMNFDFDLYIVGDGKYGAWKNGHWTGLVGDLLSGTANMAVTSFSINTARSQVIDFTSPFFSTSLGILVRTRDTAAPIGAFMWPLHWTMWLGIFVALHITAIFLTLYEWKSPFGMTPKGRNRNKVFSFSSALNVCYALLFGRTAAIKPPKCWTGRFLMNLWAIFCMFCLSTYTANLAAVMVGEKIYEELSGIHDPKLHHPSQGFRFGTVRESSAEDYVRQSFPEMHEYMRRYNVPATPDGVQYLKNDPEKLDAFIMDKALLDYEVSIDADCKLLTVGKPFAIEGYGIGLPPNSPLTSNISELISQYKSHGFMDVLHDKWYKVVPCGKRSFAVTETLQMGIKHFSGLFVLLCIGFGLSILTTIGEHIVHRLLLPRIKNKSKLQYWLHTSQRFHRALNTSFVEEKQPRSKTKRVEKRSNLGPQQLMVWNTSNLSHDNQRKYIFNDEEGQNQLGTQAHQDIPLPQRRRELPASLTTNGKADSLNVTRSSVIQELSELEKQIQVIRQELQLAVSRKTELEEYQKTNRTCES

GluA1 = GluA1 (Rattus norvegicus, UniProt P19490); assay: Two-electrode voltage-clamp recordings, Xenopus oocytes expressing GluA1
GluA1, sequence (P19490 19-907): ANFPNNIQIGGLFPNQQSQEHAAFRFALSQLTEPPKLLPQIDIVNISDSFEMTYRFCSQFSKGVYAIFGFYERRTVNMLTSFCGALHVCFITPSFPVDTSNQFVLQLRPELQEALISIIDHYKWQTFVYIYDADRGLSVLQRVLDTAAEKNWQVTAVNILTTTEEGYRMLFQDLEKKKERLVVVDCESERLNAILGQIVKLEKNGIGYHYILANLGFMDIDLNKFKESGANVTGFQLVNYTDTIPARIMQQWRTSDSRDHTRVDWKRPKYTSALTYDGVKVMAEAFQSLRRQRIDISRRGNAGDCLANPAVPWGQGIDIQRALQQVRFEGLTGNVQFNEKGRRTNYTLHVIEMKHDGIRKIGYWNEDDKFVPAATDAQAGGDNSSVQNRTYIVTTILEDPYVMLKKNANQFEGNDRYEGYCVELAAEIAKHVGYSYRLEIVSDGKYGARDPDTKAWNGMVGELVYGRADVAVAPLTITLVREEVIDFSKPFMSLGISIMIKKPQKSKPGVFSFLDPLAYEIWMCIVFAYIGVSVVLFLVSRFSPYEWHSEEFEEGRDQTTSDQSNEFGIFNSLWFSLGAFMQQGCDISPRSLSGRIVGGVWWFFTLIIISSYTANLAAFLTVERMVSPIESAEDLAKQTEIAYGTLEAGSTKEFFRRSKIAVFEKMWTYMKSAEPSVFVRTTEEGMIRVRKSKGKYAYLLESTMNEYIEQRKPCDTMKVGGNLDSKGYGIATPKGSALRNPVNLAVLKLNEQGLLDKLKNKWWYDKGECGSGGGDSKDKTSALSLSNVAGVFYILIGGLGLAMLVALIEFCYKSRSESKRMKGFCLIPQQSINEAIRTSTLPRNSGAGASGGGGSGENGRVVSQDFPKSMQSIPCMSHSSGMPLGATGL

GluN1/N2B [1] = target: GluN1/N2B (Rattus norvegicus, UniProt P35439+Q00960); assay: Two-electrode voltage-clamp recordings, Xenopus oocytes expressing GluN1/N2B
GluN1/N2A [2] = target: GluN1/N2A (Rattus norvegicus, UniProt P35439+Q00959); assay: Two-electrode voltage-clamp recordings, Xenopus oocytes expressing GluN1/N2A
GluK2 = GluK2 (Rattus norvegicus, UniProt P42260); assay: Two-electrode voltage-clamp recordings, Xenopus oocytes expressing GluK2
GluK2, sequence (P42260 32-908): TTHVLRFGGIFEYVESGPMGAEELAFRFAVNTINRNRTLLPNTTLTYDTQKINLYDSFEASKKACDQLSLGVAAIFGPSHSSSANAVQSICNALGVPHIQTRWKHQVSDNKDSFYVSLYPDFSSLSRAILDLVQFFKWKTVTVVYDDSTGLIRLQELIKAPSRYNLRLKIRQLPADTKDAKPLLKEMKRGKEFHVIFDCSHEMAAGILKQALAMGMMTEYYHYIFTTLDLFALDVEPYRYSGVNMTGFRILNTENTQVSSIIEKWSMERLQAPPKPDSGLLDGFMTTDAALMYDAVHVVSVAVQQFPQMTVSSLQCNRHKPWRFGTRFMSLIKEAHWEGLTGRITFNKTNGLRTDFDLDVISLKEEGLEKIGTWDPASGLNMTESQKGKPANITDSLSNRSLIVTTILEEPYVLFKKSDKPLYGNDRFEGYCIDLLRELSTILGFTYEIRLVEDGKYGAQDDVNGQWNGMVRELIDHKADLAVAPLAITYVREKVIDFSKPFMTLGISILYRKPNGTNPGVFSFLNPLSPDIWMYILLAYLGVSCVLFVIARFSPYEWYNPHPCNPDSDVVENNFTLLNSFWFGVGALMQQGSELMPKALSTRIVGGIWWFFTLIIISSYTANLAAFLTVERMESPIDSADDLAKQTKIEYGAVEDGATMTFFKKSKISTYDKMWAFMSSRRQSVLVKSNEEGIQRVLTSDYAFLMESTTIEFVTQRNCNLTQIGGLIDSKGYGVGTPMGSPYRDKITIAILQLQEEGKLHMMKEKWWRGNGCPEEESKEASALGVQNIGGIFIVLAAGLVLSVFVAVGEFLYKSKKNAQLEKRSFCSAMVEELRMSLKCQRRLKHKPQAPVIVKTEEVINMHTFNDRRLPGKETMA

GluN1(F484A/T518L)/N3B = GluN1(F484A/T518L)/N3B (Rattus norvegicus, UniProt Q8VHN2); assay: Two-electrode voltage-clamp recordings, Xenopus oocytes expressing GluN1; conditions: for Hill coefficient (nH): inhibition
GluN1(F484A/T518L)/N3B, sequence (Q8VHN2 25-1002, stated change not applied, other chains not shown): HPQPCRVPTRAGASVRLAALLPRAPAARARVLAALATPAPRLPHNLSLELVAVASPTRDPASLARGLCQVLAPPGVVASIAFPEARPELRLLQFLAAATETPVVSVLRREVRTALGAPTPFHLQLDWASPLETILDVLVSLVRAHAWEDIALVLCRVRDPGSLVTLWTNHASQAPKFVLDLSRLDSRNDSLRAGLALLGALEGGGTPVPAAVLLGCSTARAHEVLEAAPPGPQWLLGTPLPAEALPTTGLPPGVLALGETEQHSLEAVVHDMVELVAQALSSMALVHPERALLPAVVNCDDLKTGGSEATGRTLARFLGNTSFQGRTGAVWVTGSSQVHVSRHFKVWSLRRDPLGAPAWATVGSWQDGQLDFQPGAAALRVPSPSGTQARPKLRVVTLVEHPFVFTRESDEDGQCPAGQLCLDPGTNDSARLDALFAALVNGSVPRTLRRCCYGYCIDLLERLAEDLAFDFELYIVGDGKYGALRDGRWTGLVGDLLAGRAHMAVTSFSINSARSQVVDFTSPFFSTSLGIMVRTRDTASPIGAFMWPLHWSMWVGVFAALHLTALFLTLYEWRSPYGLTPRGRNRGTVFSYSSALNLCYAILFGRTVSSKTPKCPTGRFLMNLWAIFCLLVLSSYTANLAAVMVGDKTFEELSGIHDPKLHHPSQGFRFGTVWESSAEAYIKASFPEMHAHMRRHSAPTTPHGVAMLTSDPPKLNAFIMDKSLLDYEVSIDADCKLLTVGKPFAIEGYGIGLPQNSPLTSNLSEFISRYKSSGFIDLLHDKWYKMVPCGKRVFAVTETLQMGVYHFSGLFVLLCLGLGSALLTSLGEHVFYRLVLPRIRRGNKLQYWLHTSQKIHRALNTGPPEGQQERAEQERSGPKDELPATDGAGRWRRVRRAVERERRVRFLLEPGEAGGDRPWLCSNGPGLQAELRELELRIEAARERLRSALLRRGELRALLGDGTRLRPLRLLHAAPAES

[3] = target: wild-type GluN1/N3B receptors (Rattus norvegicus, UniProt P35439+Q8VHN2)
wild-type GluN1/N3B receptors, sequence (Q8VHN2 25-1002, other chains not shown): as the sequence (Q8VHN2 25-1002, stated change not applied, other chains not shown) above

GluN1/N2D [4] = target: GluN1/N2D (Rattus norvegicus, UniProt P35439+Q62645); assay: Two-electrode voltage-clamp recordings, Xenopus oocytes expressing GluN1/N2D
GluN1/N2C [5] = target: GluN1/N2C (Rattus norvegicus, UniProt P35439+Q00961); assay: Two-electrode voltage-clamp recordings, Xenopus oocytes expressing GluN1/N2C
GluN1/N2A [6] = target: GluN1/N2A (Rattus norvegicus, UniProt P35439); assay: Two-electrode voltage-clamp recordings, Xenopus oocytes expressing GluN1/N2A; conditions: co-applied with 100 μM glutamate and 0.5 μM glycine
GluN1(F484A)/N3A = GluN1(F484A)/N3A (Rattus norvegicus, UniProt P35439+Q9R1M7, F484A); assay: Two-electrode voltage-clamp recordings, Xenopus oocytes expressing GluN1; conditions: for Hill coefficient (nH): inhibition
GluN1(F484A)/N3A, sequence (Q9R1M7 24-1115 isoform Q9R1M7-2 limits assumed, stated change not applied, other chains not shown): as the sequence (Q9R1M7 24-1115 isoform Q9R1M7-2, other chains not shown) above

GluN1/N2D [7] = target: GluN1/N2D (Rattus norvegicus, UniProt P35439); assay: Two-electrode voltage-clamp recordings, Xenopus oocytes expressing GluN1/N2D; conditions: co-applied with 100 μM glutamate and 0.5 μM glycine
GluN1(T518L)/N3A = GluN1(T518L)/N3A (Rattus norvegicus, UniProt P35439+Q9R1M7, T518L); assay: Two-electrode voltage-clamp recordings, Xenopus oocytes expressing GluN1; conditions: for Hill coefficient (nH): inhibition
GluN1(T518L)/N3A, sequence (Q9R1M7 24-1115 isoform Q9R1M7-2 limits assumed, stated change not applied, other chains not shown): as the sequence (Q9R1M7 24-1115 isoform Q9R1M7-2, other chains not shown) above

GluN1/N2C [8] = target: GluN1/N2C (Rattus norvegicus, UniProt P35439); assay: Two-electrode voltage-clamp recordings, Xenopus oocytes expressing GluN1/N2C; conditions: co-applied with 100 μM glutamate and 0.5 μM glycine
GluN1/N2B [9] = target: GluN1/N2B (Rattus norvegicus, UniProt P35439); assay: Two-electrode voltage-clamp recordings, Xenopus oocytes expressing GluN1/N2B; conditions: co-applied with 100 μM glutamate and 0.5 μM glycine
[10] = IC50, co-applied with 100 μM glycine, N.E., no significant effect at 300 μM
[11] = co-applied with 100 μM glycine, N.E., no significant effect at 300 μM
[12] = read-out: inhibition of current responses to 10 μM glycine
[13] = IC50, co-applied with 100 μM glutamate and 0.5 μM glycine

O=c1[nH]c2nonc2nc1O [TK80, 6-hydroxy-[1,2,5]oxadiazolo[3,4-b]pyrazin-5(4H)-one]
IC50 (GluN1(F484A/T518L)/N3A; [10]): > 300 µM | IC50 (GluN1(F484A/T518L)/N3A; [11]): N.E. | IC50 (GluA1): > 300 µM | IC50 (GluN1/N2B [1]): > 300 µM | Ki (GluN1/N2B [1]): > 260 µM | IC50 (GluN1/N2A [2]): > 300 µM | Ki (GluN1/N2A [2]): > 290 µM | IC50 (GluK2): > 300 µM | IC50 (GluN1(F484A/T518L)/N3B): 79 µM | Ki (GluN1(F484A/T518L)/N3B): 39 µM | voltage dependence of inhibition (GluN1(F484A/T518L)/N3B; current-voltage relationship, inhibition at −60 mV and +30 mV): voltage-independent | Hill coefficient (nH) (GluN1(F484A/T518L)/N3B; co-applied with 100 μM glycine): −1.79 | inhibition at 100 µM [3, 12]: 65 ± 4.3% | Ki (GluN1/N2D [4]): > 210 µM | IC50 (GluN1/N2D [4]; [13]): > 300 µM | IC50 (GluN1/N2C [5]): > 300 µM | Ki (GluN1/N2C [5]): > 260 µM

O=C(O)c1cc(C(=O)c2ccc(Cl)cc2Cl)c[nH]1 [TK30, 4-(2,4-dichlorobenzoyl)-1H-pyrrole-2-carboxylic acid]
IC50 (GluN1(F484A/T518L)/N3A; [10]): 14 µM | voltage dependence of inhibition (GluN1(F484A/T518L)/N3A): voltage-independent | Hill coefficient (nH) (GluN1(F484A/T518L)/N3A; co-applied with 100 μM glycine): −1.44 | IC50 (GluN1(F484A/T518L)/N3A; pIC50 ± S.E.M., co-applied with 100 μM glycine): 15.8 µM | IC50 (GluN1/N2B [1]): > 300 µM | Hill coefficient (nH) (GluN1/N2A [6]; inhibition): −1.39 | IC50 (GluN1/N2A [2]): 270 µM | IC50 (GluN1(F484A/T518L)/N3B): 7.4 µM | Hill coefficient (nH) (GluN1(F484A/T518L)/N3B; co-applied with 100 μM glycine): −1.37 | IC50 (GluN1(F484A)/N3A): 34 µM | Maximal inhibition (GluN1(F484A)/N3A; co-applied with 100 μM glycine): 100% | Hill coefficient (nH) (GluN1(F484A)/N3A; co-applied with 100 μM glycine): −1.16 | inhibition at 30 µM [3, 12]: 70 ± 4% | Hill coefficient (nH) (GluN1/N2D [7]; inhibition): −1.83 | IC50 (GluN1/N2D [4]; [13]): 90 µM | IC50 (GluN1/N2D [4]; pIC50 ± S.E.M., co-applied with 100 μM glutamate and 0.5 μM glycine): 79.4 µM | IC50 (GluN1(T518L)/N3A): 9.8 µM | Maximal inhibition (GluN1(T518L)/N3A; co-applied with 50 μM glycine): 100% | Hill coefficient (nH) (GluN1(T518L)/N3A; co-applied with 50 μM glycine): −1.50 | Hill coefficient (nH) (GluN1/N2C [8]; inhibition): −1.77 | IC50 (GluN1/N2C [5]): 120 µM

O=C(O)c1cc(Nc2nc(-c3cccnc3)cs2)ccc1O [TK13]
pIC50 ± S.E.M. (GluN1(F484A/T518L)/N3A; co-applied with 100 μM glycine): 4.2 ± 0.06 | IC50 (GluN1(F484A/T518L)/N3A; [11]): 67 µM | voltage dependence of inhibition (GluN1(F484A/T518L)/N3A): voltage-independent | Hill coefficient (nH) (GluN1(F484A/T518L)/N3A; co-applied with 100 μM glycine): −1.04 | IC50 (GluA1; co-applied with 30 μM glutamate): > 300 µM | IC50 (GluN1/N2B [9]): > 300 µM | IC50 (GluN1/N2A [6]): > 300 µM | IC50 (GluK2; co-applied with 30 μM glutamate, oocytes incubated 5 min in 10 μM concanavalin A): > 300 µM | IC50 (GluN1(F484A/T518L)/N3B; co-applied with 100 μM glycine): 49 µM | pIC50 ± S.E.M. (GluN1(F484A/T518L)/N3B; co-applied with 100 μM glycine): 4.3 ± 0.03 | Hill coefficient (nH) (GluN1(F484A/T518L)/N3B; co-applied with 100 μM glycine): −0.77 | IC50 (GluN1(F484A)/N3A; co-applied with 100 μM glycine): 93 µM | Maximal inhibition (GluN1(F484A)/N3A; co-applied with 100 μM glycine): 100% | pIC50 ± S.E.M. (GluN1(F484A)/N3A; co-applied with 100 μM glycine): 4.0 ± 0.03 | Hill coefficient (nH) (GluN1(F484A)/N3A; co-applied with 100 μM glycine): −1.04 | inhibition of current responses to 10 μM glycine ([3]; 100 μM compound): 55 ± 3.1% | IC50 (GluN1/N2D [7]): > 300 µM | IC50 (GluN1(T518L)/N3A; co-applied with 50 μM glycine): 100 µM | Maximal inhibition (GluN1(T518L)/N3A; co-applied with 50 μM glycine): 100% | pIC50 ± S.E.M. (GluN1(T518L)/N3A; co-applied with 50 μM glycine): 4.0 ± 0.05 | Hill coefficient (nH) (GluN1(T518L)/N3A; co-applied with 50 μM glycine): −1.02 | IC50 (GluN1/N2C [8]): > 300 µM
